Values of other authors as cited in patent publication US20220160728A1, “GENE THERAPY METHODS” (Homology Medicines, Inc., priority 2020, published 2022).

Details: corticosteroid equivalency conversion values (prednisolone equivalents)

| SMILES | Equivalent dose [mg] |
| --- | --- |
| C[C@]12C=CC(=O)C=C1CC[C@@H]1[C@@H]2[C@@H](O)C[C@@]2(C)[C@H]1CC[C@]2(O)C(=O)CO [Prednisolone] | 5 |
| CC(=O)OCC(=O)[C@@]1(O)CC[C@H]2[C@@H]3CCC4=CC(=O)CC[C@]4(C)[C@H]3C(=O)C[C@@]21C [Cortisone acetate] | 25 |
| C[C@]12C=CC(=O)C=C1CC[C@H]1[C@@H]3C[C@@H](O)[C@](O)(C(=O)CO)[C@@]3(C)C[C@H](O)[C@@]12F [Triamcinolone] | 4 |
| C[C@]12CCC(=O)C=C1CC[C@@H]1[C@@H]2[C@@H](O)C[C@@]2(C)[C@H]1CC[C@]2(O)C(=O)CO [Hydrocortisone (cortisol), Hydrocortisone] | 20 |
